Experimental data from BindingDB's records for patent US20250034165 (Chia Tai Tianqing Pharmaceutical Group, 2025).

Tests used:
[1] = target: Epidermal growth factor receptor (EGFR)(L858R)(T790M) (Homo sapiens, UniProt P00533, L858R/T790M); test: Inhibitory Activity for EGFR (L858R/T790M) Kinase
Experimental: (§1) A 50 ng/μL EGFR (L858R/T790M, Carna) stock solution was diluted with a kinase buffer (50 mM HEPES, 10 mM MgCl2, 2 mM DTT, 1 mM EGTA, 0.01% Tween 20), and 6 μL of 1.67× working solution at 0.004175 ng/μL (final concentration: 0.0025 ng/μL) was added to each well. Different compounds dissolved in DMSO were added to wells using a nanoliter pipettor, resulting in the final concentrations of the compounds of 10 nM to 0.0024 nM (4-fold gradient, 7 concentrations in total), and blank control wells (without enzyme) and negative control wells (with enzyme, plus vehicle DMSO) were set, 2 replicate wells for each concentration. After enzyme was reacted with the compound or vehicle for 30 min, 5×ATP at 25 μM (final concentration: 5 μM, Sigma) prepared with a kinase buffer was mixed with 5× substrate at 0.5 μM (final concentration: 0.1 μM, ULight-poly GT, PerkinElmer) at a ratio of 1:1 (v:v), and the mixture was added to each well at 4 μL/well. After being sealed with a film, the plate was incubated at room temperature for 2 h, and then 5 μL of 4×EDTA at 40 mM (final concentration: 10 mM) was added to each well. After the plate was incubated for 5 min at room temperature, 5 μL of 4× detection reagent at 8 nM (final concentration: 2 nM, Eu-anti-phospho-tyrosine antibody, PerkinElmer) was added to each well. After being incubated at room temperature for 1 h, the plate was read using a PerkinElmer Envision multi-mode microplate reader (excitation: 320 nm, emission: 665 nm), and IC50 was calculated by four-parameter fitting.

[2] = target: Epidermal growth factor receptor (Homo sapiens, UniProt P00533); test: Inhibitory Activity for EGFR (WT) Kinase
Experimental: A 50 ng/μL EGFR (WT, Carna) stock solution was diluted with a kinase buffer (50 mM HEPES, 10 mM MgCl2, 2 mM DTT, 1 mM EGTA, 0.01% Tween 20), and 6 μL of 1.67× working solution at 0.005 ng/μL (final concentration: 0.003 ng/μL) was added to each well. Different compounds dissolved in DMSO were added to the wells using a nanoliter pipettor, resulting in the final concentrations of the compounds of 100 nM to 0.0244 nM (4-fold gradient for 7 concentrations in total), and blank control wells (without enzyme) and negative control wells (with enzyme, plus vehicle DMSO) were set, 2 replicate wells for each concentration. After enzyme was reacted with the compound or vehicle for 30 min, 5×ATP at 25 μM (final concentration: 5 μM, Sigma) prepared with a kinase buffer was mixed with 5× substrate at 0.5 μM (final concentration: 0.1 μM, ULight-poly GT, PerkinElmer) at a ratio of 1:1 (v:v), and the mixture was added to each well at 4 μL/well. After being sealed with a film, the plate was incubated at room temperature for 2 h, and then 5 μL of 4×EDTA at 40 mM (final concentration: 10 mM) was added to each well. After the plate was incubated for 5 min at room temperature, 5 μL of 4× detection reagent at 8 nM (final concentration: 2 nM, Eu-anti-phospho-tyrosine antibody, PerkinElmer) was added to each well.

[3] = target: Epidermal growth factor receptor [T790M,C797S,L858R] (UniProt P00533, C797S/L858R/T790M); test: Inhibitory Activity for EGFR (L858R/T790M/C797S) Kinase
Experimental: as §1, with “(L858R/T790M/C797S, BPS)” for “(L858R/T790M, Carna)”, “0.00167” for “0.004175”, “0.001” for “0.0025”

Epidermal growth factor receptor (EGFR)(L858R)(T790M), sequence (P00533 25-1210 T790M/L858R limits assumed): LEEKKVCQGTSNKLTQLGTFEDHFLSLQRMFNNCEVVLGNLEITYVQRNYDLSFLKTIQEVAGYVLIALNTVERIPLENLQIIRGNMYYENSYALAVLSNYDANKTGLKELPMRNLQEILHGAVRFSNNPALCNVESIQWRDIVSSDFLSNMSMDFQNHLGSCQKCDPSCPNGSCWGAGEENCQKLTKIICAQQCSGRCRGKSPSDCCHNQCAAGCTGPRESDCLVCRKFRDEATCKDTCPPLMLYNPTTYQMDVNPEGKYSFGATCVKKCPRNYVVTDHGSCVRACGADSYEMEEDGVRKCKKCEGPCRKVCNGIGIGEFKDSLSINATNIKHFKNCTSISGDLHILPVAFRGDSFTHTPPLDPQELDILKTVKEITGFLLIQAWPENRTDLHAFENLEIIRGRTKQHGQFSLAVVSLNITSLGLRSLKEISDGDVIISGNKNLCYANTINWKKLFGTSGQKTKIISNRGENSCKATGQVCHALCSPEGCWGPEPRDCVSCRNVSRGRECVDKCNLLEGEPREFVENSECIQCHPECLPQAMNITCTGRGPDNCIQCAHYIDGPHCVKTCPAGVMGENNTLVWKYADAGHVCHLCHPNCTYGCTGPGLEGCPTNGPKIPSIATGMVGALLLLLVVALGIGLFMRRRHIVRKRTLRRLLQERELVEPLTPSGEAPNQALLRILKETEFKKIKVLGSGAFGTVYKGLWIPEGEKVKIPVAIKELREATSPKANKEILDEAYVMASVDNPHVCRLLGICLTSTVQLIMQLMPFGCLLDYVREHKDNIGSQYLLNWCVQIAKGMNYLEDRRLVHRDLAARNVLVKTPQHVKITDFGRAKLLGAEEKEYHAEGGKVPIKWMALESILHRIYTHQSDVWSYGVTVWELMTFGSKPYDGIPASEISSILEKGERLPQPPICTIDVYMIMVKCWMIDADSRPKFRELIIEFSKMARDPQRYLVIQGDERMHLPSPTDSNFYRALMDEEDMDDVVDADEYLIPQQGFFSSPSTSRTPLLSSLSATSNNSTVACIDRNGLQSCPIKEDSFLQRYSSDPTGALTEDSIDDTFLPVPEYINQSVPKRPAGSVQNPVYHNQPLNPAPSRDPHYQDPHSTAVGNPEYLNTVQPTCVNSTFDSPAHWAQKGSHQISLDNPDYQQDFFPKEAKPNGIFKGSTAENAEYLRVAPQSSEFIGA
Epidermal growth factor receptor, sequence (P00533 whole entry): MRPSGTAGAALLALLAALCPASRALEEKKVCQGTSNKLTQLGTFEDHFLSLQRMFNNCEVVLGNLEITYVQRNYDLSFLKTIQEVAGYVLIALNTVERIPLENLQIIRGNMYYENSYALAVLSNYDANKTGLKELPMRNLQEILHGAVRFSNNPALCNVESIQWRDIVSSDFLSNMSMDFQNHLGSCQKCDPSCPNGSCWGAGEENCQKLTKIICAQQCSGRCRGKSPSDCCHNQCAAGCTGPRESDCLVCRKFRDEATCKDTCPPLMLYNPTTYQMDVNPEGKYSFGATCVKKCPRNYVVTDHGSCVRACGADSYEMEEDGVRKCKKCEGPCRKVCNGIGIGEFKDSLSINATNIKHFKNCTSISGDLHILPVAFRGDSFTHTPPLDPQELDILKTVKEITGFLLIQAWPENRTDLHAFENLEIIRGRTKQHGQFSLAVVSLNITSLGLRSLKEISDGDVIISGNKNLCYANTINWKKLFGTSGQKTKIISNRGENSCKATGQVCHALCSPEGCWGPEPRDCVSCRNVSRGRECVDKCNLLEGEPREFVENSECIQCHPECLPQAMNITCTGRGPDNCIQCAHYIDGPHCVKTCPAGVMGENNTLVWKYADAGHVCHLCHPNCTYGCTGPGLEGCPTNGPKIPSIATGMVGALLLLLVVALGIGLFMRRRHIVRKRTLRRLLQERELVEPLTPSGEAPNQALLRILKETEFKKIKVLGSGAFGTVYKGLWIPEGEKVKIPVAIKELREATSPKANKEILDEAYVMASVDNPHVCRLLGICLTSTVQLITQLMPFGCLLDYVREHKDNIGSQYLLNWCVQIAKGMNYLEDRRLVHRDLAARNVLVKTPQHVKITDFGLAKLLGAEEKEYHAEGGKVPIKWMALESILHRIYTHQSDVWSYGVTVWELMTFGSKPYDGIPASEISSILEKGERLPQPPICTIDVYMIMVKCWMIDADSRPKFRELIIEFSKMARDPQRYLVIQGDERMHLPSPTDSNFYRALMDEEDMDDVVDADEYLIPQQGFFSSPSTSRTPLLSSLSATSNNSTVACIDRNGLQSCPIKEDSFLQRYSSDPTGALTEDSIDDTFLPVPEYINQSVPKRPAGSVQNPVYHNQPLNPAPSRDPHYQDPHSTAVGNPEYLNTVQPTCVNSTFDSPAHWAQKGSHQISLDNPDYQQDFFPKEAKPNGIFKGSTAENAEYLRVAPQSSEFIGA
Epidermal growth factor receptor [T790M,C797S,L858R], sequence (P00533 25-1210 T790M/C797S/L858R limits assumed): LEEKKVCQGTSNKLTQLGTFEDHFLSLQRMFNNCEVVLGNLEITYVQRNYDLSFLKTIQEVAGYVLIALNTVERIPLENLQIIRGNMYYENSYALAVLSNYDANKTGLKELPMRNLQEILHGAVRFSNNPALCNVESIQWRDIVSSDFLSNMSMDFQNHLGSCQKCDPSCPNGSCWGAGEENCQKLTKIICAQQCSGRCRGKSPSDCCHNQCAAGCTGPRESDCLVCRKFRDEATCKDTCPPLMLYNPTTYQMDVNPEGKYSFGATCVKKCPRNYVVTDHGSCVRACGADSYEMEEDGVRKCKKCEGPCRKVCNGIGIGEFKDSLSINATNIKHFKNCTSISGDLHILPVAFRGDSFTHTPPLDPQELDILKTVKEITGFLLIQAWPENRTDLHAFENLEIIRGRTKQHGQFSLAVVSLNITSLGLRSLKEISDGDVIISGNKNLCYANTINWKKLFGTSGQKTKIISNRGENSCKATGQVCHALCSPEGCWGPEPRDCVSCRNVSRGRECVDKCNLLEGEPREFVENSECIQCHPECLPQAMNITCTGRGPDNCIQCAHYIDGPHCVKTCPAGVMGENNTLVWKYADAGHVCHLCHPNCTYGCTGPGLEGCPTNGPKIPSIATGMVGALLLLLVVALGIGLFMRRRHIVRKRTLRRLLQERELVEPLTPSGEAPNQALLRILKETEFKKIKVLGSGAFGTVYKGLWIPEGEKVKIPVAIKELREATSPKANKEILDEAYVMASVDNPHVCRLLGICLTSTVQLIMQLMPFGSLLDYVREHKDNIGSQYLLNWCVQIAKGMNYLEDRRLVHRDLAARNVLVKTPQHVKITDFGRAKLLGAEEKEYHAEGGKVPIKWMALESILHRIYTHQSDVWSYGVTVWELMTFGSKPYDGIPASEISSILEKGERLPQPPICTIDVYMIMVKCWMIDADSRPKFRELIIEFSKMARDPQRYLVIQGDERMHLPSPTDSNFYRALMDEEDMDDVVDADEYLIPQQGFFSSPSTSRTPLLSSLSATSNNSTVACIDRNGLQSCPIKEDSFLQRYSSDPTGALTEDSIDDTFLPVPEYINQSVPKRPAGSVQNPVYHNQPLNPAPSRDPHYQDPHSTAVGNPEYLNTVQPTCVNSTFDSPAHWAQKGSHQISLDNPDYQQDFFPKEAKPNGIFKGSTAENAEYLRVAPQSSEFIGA

Structure (SMILES) | IC50 [1] [nM] | IC50 [2] [nM] | IC50 [3] [nM]
Cc1cc2cc(n1)-c1cnn(C)c1OCCC[C@@H](C1CC1)CN1/C(=N/C2=O)Nc2ccc(NCCCN3CCCC3)cc21 [US20250034165, Example 84] | 0.1 | 1.2 | –
Cc1cc2cc(n1)-c1cnn(C)c1OCCC[C@@H](C1CC1)CN1/C(=N/C2=O)Nc2ccc(N3CC[C@H](O)C3)cc21 [US20250034165, Example 21] | – | 2.4 | 0.075
Cc1cc2cc(n1)-c1cnn(C)c1OCCC[C@@H](C1CC1)CN1/C(=N/C2=O)Nc2cc(NCCCCN(C)C)ccc21 [US20250034165, Example 51] | 0.017 | 1.8 | –
Cc1cc2cc(n1)-c1cnn(C)c1OCCC[C@@H](C1CC1)CN1/C(=N/C2=O)Nc2ccc(NCCCN3CCOCC3)cc21 [US20250034165, Example 81] | 0.044 | 0.68 | 0.027
CCN1CCC(Nc2ccc3c(c2)N2C[C@H](C4CC4)CCCOc4c(cnn4C)-c4cc(cc(C)n4)C(=O)/N=C/2N3)CC1 [US20250034165, Example 55] | 0.017 | 0.5 | 0.022
Cc1cc2cc(n1)-c1cnn(C)c1OCCC[C@@H](C1CC1)CN1/C(=N/C2=O)Nc2cc(NCCCN)ccc21 [US20250034165, Example 50] | – | 1.3 | 0.066
Cc1cc2cc(n1)-c1cnn(C)c1OCCC[C@@H](C1CC1)CN1/C(=N/C2=O)Nc2cc(NC(C)CN(C)C)ccc21 (stereo not given in full) [US20250034165, Example 62] | 0.031 | 0.77 | 0.016
Cc1cc2cc(n1)-c1cnn(C)c1OCCC[C@@H](C1CC1)CN1/C(=N/C2=O)Nc2ccc(N(C)CCN(C)C)cc21 [US20250034165, Example 45] | 0.02 | 0.95 | 0.024
Cc1cc2cc(n1)-c1cnn(C)c1OCCC[C@@H](C1CC1)CN1/C(=N/C2=O)Nc2ccc(OCCN(C)C)cc21 [US20250034165, Example 11] | 0.044 | 1.9 | 0.055
Cc1cc2cc(n1)-c1cnn(C3CC3)c1OCCC[C@@H](C)CN1/C(=N/C2=O)Nc2cc(NC3CCN(C)CC3)ccc21 [US20250034165, Example 12] | 0.19 | 2.6 | 0.2
Cc1cc2cc(n1)-c1cnn(C)c1OCCC[C@@H](C1CC1)CN1/C(=N/C2=O)Nc2cc(NCCN(C)C)ccc21 [US20250034165, Example 42] | 0.013 | 0.68 | 0.011
Cc1cc2cc(n1)-c1cnn(C)c1OCCC[C@@H](C1CC1)CN1/C(=N/C2=O)Nc2cc(NCCCCN)ccc21 [US20250034165, Example 53] | 0.011 | 0.72 | 0.014
Cc1cc2cc(n1)-c1cnn(C)c1OCCC[C@@H](C1CC1)CN1/C(=N/C2=O)Nc2cc(NCC3CCOCC3)ccc21 [US20250034165, Example 22] | 0.04 | 2 | 0.052
Cc1cc2cc(n1)-c1cnn(C)c1OCCC[C@@H](C1CC1)CN1/C(=N/C2=O)Nc2cc(NC3CNC3)ccc21 [US20250034165, Example 32] | 0.018 | 0.34 | 0.029
Cc1cc2cc(n1)-c1cnn(C)c1OCCC[C@@H](C1CC1)CN1/C(=N/C2=O)Nc2ccc(NC3CCCC3)cc21 [US20250034165, Example 87] | 0.042 | 13 | 0.226
Cc1cc2cc(n1)-c1cnn(C)c1OCCC[C@@H](C1CC1)CN1/C(=N/C2=O)Nc2ccc(NCCN3CCCCC3)cc21 [US20250034165, Example 83] | 0.04 | 0.79 | 0.023

Structure (SMILES) | IC50 [1] [nM] | IC50 [2] [nM] | IC50 [3] [nM]
Cc1cc2cc(n1)-c1cnn(C)c1OCCC[C@@H](C1CC1)CN1/C(=N/C2=O)Nc2ccc(NCCCN(C)C)cc21 [US20250034165, Example 27] | 0.03 | 0.78 | 0.033
Cc1cc2cc(n1)-c1cnn(C)c1OCCC[C@@H](C1CC1)CN1/C(=N/C2=O)Nc2cc(NCCN3CCOCC3)ccc21 [US20250034165, Example 3] | – | 0.864 | 0.022
Cc1cc2cc(n1)-c1cnn(C)c1OCCC[C@@H](C1CC1)CN1/C(=N/C2=O)Nc2cc(NC3(C)CNC3)ccc21 [US20250034165, Example 34] | – | 0.4 | 0.028
Cc1cc2cc(n1)-c1cnn(C)c1OCCC[C@@H](C1CC1)CN1/C(=N/C2=O)Nc2cc(N[C@@H]3CCCOC3)ccc21 [US20250034165, Example 18] | – | 1.7 | 0.051
Cc1cc2cc(n1)-c1cnn(C)c1OCCC[C@@H](C1CC1)CN1/C(=N/C2=O)Nc2cc(NC3CN(C)C3)ccc21 [US20250034165, Example 33] | – | 0.47 | 0.012
Cc1cc2cc(n1)-c1cnn(C)c1OCCC[C@@H](C1CC1)CN1/C(=N/C2=O)Nc2ccc(NCCN)cc21 [US20250034165, Example 58] | 0.012 | 0.51 | –
Cc1cc2cc(n1)-c1cnn(C3CC3)c1OCCC[C@@H](C)CN1/C(=N/C2=O)Nc2ccc(N3CC[C@H](O)C3)cc21 [US20250034165, Example 16] | – | 3.4 | 0.12
Cc1cc2cc(n1)-c1cnn(C3CC3)c1OCCC[C@@H](C)CN1/C(=N/C2=O)Nc2cc(NCCN3CCOCC3)ccc21 [US20250034165, Example 5] | 0.091 | 3.1 | –
Cc1cc2cc(n1)-c1cnn(C3CC3)c1OCCC[C@@H](C)CN1/C(=N/C2=O)Nc2cc(NC[C@H]3COCCO3)ccc21 [US20250034165, Example 14] | 0.11 | 4 | –
Cc1cc2cc(n1)-c1cnn(C)c1OCCC[C@@H](C1CC1)CN1/C(=N/C2=O)Nc2cc(NC[C@H]3COCCO3)ccc21 [US20250034165, Example 19] | – | 1.8 | 0.035
Cc1cc2cc(n1)-c1cnn(C)c1OCCC[C@@H](C1CC1)CN1/C(=N/C2=O)Nc2cc(NC3CCN(C(C)C)CC3)ccc21 [US20250034165, Example 47] | 0.023 | 0.55 | –
Cc1cc2cc(n1)-c1cnn(C)c1OCCC[C@@H](C1CC1)CN1/C(=N/C2=O)Nc2ccc(NC3CCN(C)CC3)cc21 [US20250034165, Example 20] | 0.016 | 0.2 | –
Cc1cc2cc(n1)-c1cnn(C)c1OCCC[C@@H](C1CC1)CN1/C(=N/C2=O)Nc2ccc(NC(C)CN(C)C)cc21 (stereo not given in full) [US20250034165, Example 63] | 0.009 | 0.33 | –
Cc1cc2cc(n1)-c1cnn(C)c1OCCC[C@@H](C1CC1)CN1/C(=N/C2=O)Nc2cc(N[C@@H]3CCOC3)ccc21 [US20250034165, Example 43] | – | 1.2 | 0.039
Cc1cc2cc(n1)-c1cnn(C)c1OCCC[C@@H](C1CC1)CN1/C(=N/C2=O)Nc2ccc(NCCN3CCCC3)cc21 [US20250034165, Example 82] | – | 0.58 | 0.014
